Test results as given in the supplement of paper PMC11451515.

Test system: SEM cells
Assay: cell viability relative to DMSO control; higher = less cytotoxic
Settings: 48 h
Outline: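 NOMO1 or SEM cells were plated at 500 cells/well and P12-Ichikawa cells at 1000 cells/well in 1536-well plates (5 μl), after each leukemia line had been adapted for at least four passages in each medium. Pin dosing delivered library compounds in DMSO at 11 threefold concentrations, 47 μM to 0.79 nM. CellTiter-Glo One luminescence was read after 48 h at 37°C. Viability is reported as a per-plate percentage of DMSO wells, with cell-free wells as background.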

[1] = HPLM + 10% dialyzed FBS, 0.000781 µM
[2] = HPLM + 10% dialyzed FBS, 0.00234 µM
[3] = HPLM + 10% dialyzed FBS, 0.00702 µM
[4] = HPLM + 10% dialyzed FBS, 0.0211 µM
[5] = HPLM + 10% dialyzed FBS, 0.0632 µM
[6] = HPLM + 10% dialyzed FBS, 0.19 µM
[7] = HPLM + 10% dialyzed FBS, 0.569 µM
[8] = HPLM + 10% dialyzed FBS, 1.71 µM
[9] = HPLM + 10% dialyzed FBS, 5.12 µM
[10] = HPLM + 10% dialyzed FBS, 15.4 µM
[11] = HPLM + 10% dialyzed FBS, 46.1 µM
[12] = RPMI 5 mM glucose + 10% FBS, 0.000781 µM
[13] = RPMI 5 mM glucose + 10% FBS, 0.00234 µM
[14] = RPMI 5 mM glucose + 10% FBS, 0.00702 µM
[15] = RPMI 5 mM glucose + 10% FBS, 0.0211 µM
[16] = RPMI 5 mM glucose + 10% FBS, 0.0632 µM
[17] = RPMI 5 mM glucose + 10% FBS, 0.19 µM
[18] = RPMI 5 mM glucose + 10% FBS, 0.569 µM
[19] = RPMI 5 mM glucose + 10% FBS, 1.71 µM
[20] = RPMI 5 mM glucose + 10% FBS, 5.12 µM
[21] = RPMI 5 mM glucose + 10% FBS, 15.4 µM
[22] = RPMI 5 mM glucose + 10% FBS, 46.1 µM
[23] = RPMI 5 mM glucose + 10% dialyzed FBS, 0.000781 µM
[24] = RPMI 5 mM glucose + 10% dialyzed FBS, 0.00234 µM
[25] = RPMI 5 mM glucose + 10% dialyzed FBS, 0.00702 µM
[26] = RPMI 5 mM glucose + 10% dialyzed FBS, 0.0211 µM
[27] = RPMI 5 mM glucose + 10% dialyzed FBS, 0.0632 µM
[28] = RPMI 5 mM glucose + 10% dialyzed FBS, 0.19 µM
[29] = RPMI 5 mM glucose + 10% dialyzed FBS, 0.569 µM
[30] = RPMI 5 mM glucose + 10% dialyzed FBS, 1.71 µM
[31] = RPMI 5 mM glucose + 10% dialyzed FBS, 5.12 µM
[32] = RPMI 5 mM glucose + 10% dialyzed FBS, 15.4 µM
[33] = RPMI 5 mM glucose + 10% dialyzed FBS, 46.1 µM

Row | SMILES | cell viability [1] [%] | cell viability [2] [%] | cell viability [3] [%] | cell viability [4] [%] | cell viability [5] [%] | cell viability [6] [%] | cell viability [7] [%] | cell viability [8] [%] | cell viability [9] [%] | cell viability [10] [%] | cell viability [11] [%] | cell viability [12] [%] | cell viability [13] [%] | cell viability [14] [%] | cell viability [15] [%] | cell viability [16] [%] | cell viability [17] [%] | cell viability [18] [%] | cell viability [19] [%] | cell viability [20] [%] | cell viability [21] [%] | cell viability [22] [%] | cell viability [23] [%] | cell viability [24] [%] | cell viability [25] [%] | cell viability [26] [%] | cell viability [27] [%] | cell viability [28] [%] | cell viability [29] [%] | cell viability [30] [%] | cell viability [31] [%] | cell viability [32] [%] | cell viability [33] [%]
1 | Cc1cc(C(=O)N2CCN(c3cccc(Cl)c3)CC2)n(-c2ccccc2)n1 | 109 | 96.7 | 102 | 102 | 109 | 96 | 92.5 | 52.6 | 25.5 | 21.7 | 18.2 | 107 | 118 | 116 | 122 | 107 | 110 | 120 | 81.5 | 34.8 | 17.5 | 15.6 | 105 | 103 | 112 | 89.4 | 114 | 100 | 93.3 | 61.1 | 24.4 | 19.5 | 18.3
2 | C[S+](=O)([O-])c1cccc(CNc2nc(Nc3ccc4c(c3)CCC(=O)N4)ncc2C(F)(F)F)c1 |  |  |  |  |  |  |  |  |  |  |  | 112 | 126 | 119 | 127 | 105 | 125 | 109 | 71.5 | 63.1 | 30.6 | 8.79 | 111 | 114 | 98.4 | 110 | 101 | 94.9 | 87.3 | 74.4 | 49.9 | 20.5 | 4.38
3 | O=C(Nc1ncc(SCCN2CCCC2)s1)[C@]1(c2ccc([S+](=O)([O-])C3CC3)cc2)C[C@H]1C1CCCCC1 | 131 | 111 | 120 | 124 | 111 | 108 | 109 | 63.2 | 98.9 | 73.9 | 27.5 | 113 | 117 | 126 | 123 | 120 | 126 | 115 | 71.2 | 123 | 114 | 41.8 | 129 | 106 | 120 | 118 | 117 | 117 | 138 | 51.5 | 110 | 105 | 52.5
4 | COc1ccc2c(c1)c(CC(=O)OCC(=O)O)c(C)n2C(=O)c1ccc(Cl)cc1 | 109 | 114 | 111 | 110 | 112 | 110 | 119 | 102 | 113 | 109 | 106 | 121 | 126 | 121 | 120 | 113 | 111 | 109 | 99.8 | 113 | 98.4 | 102 | 119 | 131 | 123 | 123 | 116 | 116 | 128 | 110 | 112 | 113 | 100
5 | CN(C)CCN(C)C(=O)c1ccc(NC(=O)Nc2ccc(-c3nc(N4CCOCC4)c4ccn(CC(F)(F)F)c4n3)cc2)cc1 | 104 | 100 | 120 | 111 | 88 | 63.9 | 65.8 | 48.6 | 52.7 | 50.2 | 54.3 | 106 | 81.7 | 96.2 | 117 | 73.7 | 48 | 49.2 | 45.9 | 45.8 | 43.6 | 48.7 | 112 | 110 | 112 | 113 | 87.6 | 75.5 | 63.2 | 60.1 | 56.6 | 51 | 53.3
6 | NC(=O)c1cccc2nc(-c3ccc([C@H]4CCCN4)cc3F)[nH]c12 | 86.3 | 93.6 | 116 | 113 | 113 | 110 | 109 | 86.9 | 61.6 | 39.8 | 21.8 | 81.3 | 80.4 | 103 | 93.7 | 98.6 | 97.9 | 98.3 | 70.4 | 45.9 | 31.8 | 15.3 | 86.2 | 103 | 111 | 85.7 | 87.8 | 109 | 93.1 | 64.8 | 36.3 | 29.6 | 9
7 | CC(C)c1cnn2c(NCc3ccccc3)cc(NCCCCCCN)nc12 | 121 | 126 | 121 | 117 | 111 | 111 | 119 | 120 | 118 | 106 | 84.9 | 89.8 | 77.3 | 105 | 88.1 | 82.3 | 93.9 | 83.5 | 96.9 | 88.2 | 76.3 | 77.4 | 108 | 109 | 120 | 121 | 98.4 | 117 | 112 | 115 | 96.4 | 114 | 81.8
